8 molecules from patent US20100022562A1, “Use of Plant Growth Regulators to Reduce Abscisic Acid Related Plant Leaf Yellowing” (priority 2008, published 2010) can be followed below.

The subject of data set [1] is Pansy plants. Description: Pansy shelf life under drought (daily wilting rating, sales index). The data set is classed as in vivo. As for the experimental part:
(§1) All studies were conducted in the greenhouse at the research farm of Valent BioSciences Corporation (Long Grove, Ill.). Pansy plants were obtained either from local retailers as mature plants, or plugs from wholesale nurseries. Plugs of Pansy plants were transplanted into an 18-cell flat filled with Promix BX (available from Premier Horticulture Inc. Quakertown, Pa.) and grown for about 30 days prior to treatment. During growing periods, plants received daily irrigation and weekly fertilizer (1 g/L all purpose fertilizer 20-20-20, The Scotts Company, Marysville, Ohio).
(§2) Uniform plants were selected for the study. Prior to chemical treatment, plants were saturated with water and then drained for about two hours. A total of 20 mL chemical solution, which is equivalent to about 10% of the cell volume, was applied to each plant with 3 mL solution foliar applied to canopy and 17 mL solution drench applied to root zone. Unless specified, watering of plants was stopped after chemical treatment.
(§3) After chemical treatment, plants were arranged in a randomized complete block experimental design. The plants were rated daily for the extent of wilting on a scale from 1 (no wilting) to 4 (complete wilting) to generated a sales index rating. A rating of 2.5 was the point at which a plant was determined to be unmarketable and the previous day was recorded as the shelf life of that plant in days. Yellow leaf number was counted at 3 days after chemical treatment. Leaf transpiration rate was measured after treatment using a LI-1600 Steady State Porometer (LI-Cor, Lincoln, Nebr.). The transpiration rate of each treatment was calculated as the percentage of that of control at each day to reduce day-to-day variation caused by changes of environmental condition such as light intensity, humidity, and temperature.

The subject of data set [2] is Pansy plants. Description: Pansy yellow leaf number (leaf yellowing). Type of data set: in vivo. How it is done: as §1, §2
as §3, with “Yellow leaf number was counted at 3 days after chemical treatment.” left out

[3] abbreviates: 0.3 mg, Matrix Orange, drought, Table 2.
The mark [4] stands for this setting: 3 mg, Matrix Orange, drought, Table 2.
[5] abbreviates: 0.3 mg, Matrix Orange, drought, 3 d after treatment, Table 2.
Setting [6] is: 3 mg, Matrix Orange, drought, 3 d after treatment, Table 2.

In data set [1] (30 mg, Matrix Yellow, drought, Table 10), `CCOC(=O)C1CC(=O)C(=C(O)C2CC2)C(=O)C1` (centres unmarked) [TE, trinexapac-ethyl] returned a Shelf life of 2.5 days. The molecule further had a Yellow leaf number in data set [2] (30 mg, Matrix Yellow, drought, 3 d after treatment, Table 10) of 8.7.

`CC1=CC1` [MCP, 1-methylcyclopropene]: the Shelf life in data set [1] (10 μL L^−1 MCP (12 hours) at 0 hrs, Delta Premium Pure White, Table 22) stood at 4.0 days; in data set [1] (10 μL L^−1 MCP (12 hours) at +24 hrs, Delta Premium Pure White, Table 22) it was 4.0 days; in data set [1] (10 μL L^−1 MCP (12 hours) at −24 hrs, Delta Premium Pure White, Table 22), 4.0 days; in data set [1] (10 μL L^−1 MCP for 12 hours, Colossus Formula Mix, no water, Table 20), 4.2 days; in data set [1] (10 μL L^−1 MCP for 24 hours, Delta Premium Pure White, Table 21) it was 7.0 days; in data set [1] (10 μL L^−1 MCP, Delta Premium Pure White, Table 23), 4.5 days. The Yellow leaf number in data set [2] (10 μL L^−1 MCP (12 hours) at 0 hrs, Delta Premium Pure White, 3 days after treatment, Table 22) was 1.8; in data set [2] (10 μL L^−1 MCP (12 hours) at 0 hrs, Delta Premium Pure White, 7 days after treatment, Table 22), 4.0; in data set [2] (10 μL L^−1 MCP (12 hours) at +24 hrs, Delta Premium Pure White, 3 days after treatment, Table 22), 2.2; in data set [2] (10 μL L^−1 MCP (12 hours) at +24 hrs, Delta Premium Pure White, 7 days after treatment, Table 22) it was 4.0; in data set [2] (10 μL L^−1 MCP (12 hours) at −24 hrs, Delta Premium Pure White, 3 days after treatment, Table 22) it was 2.0; in data set [2] (10 μL L^−1 MCP (12 hours) at −24 hrs, Delta Premium Pure White, 7 days after treatment, Table 22), 4.0. In addition, the Yellow leaf number in data set [2] (10 μL L^−1 MCP for 12 hours, Colossus Formula Mix, 3 days after treatment, Table 20) is given as 0.2; in data set [2] (10 μL L^−1 MCP for 12 hours, Colossus Formula Mix, 8 days after treatment, Table 20), 1.7; in data set [2] (10 μL L^−1 MCP for 24 hours, Delta Premium Pure White, 3 days after treatment, Table 21) it was 0.0; in data set [2] (10 μL L^−1 MCP for 24 hours, Delta Premium Pure White, 8 days after treatment, Table 21) it was 0.7; in data set [2] (10 μL L^−1 MCP, Delta Premium Pure White, 3 days after treatment, Table 23), 3.2; in data set [2] (10 μL L^−1 MCP, Delta Premium Pure White, 7 days after treatment, Table 23), 6.7.

Regarding `COC(=O)C=C(C)C=CC1(O)c2ccccc2C(=O)CC1(C)C` (mixture of isomers) [PBI-488, tetralone, ester], the Shelf life was 5.3 days in data set [1] (setting [3]) and 7.0 days in data set [1] (setting [4]). The Yellow leaf number is on record as 9.2 in data set [2] (setting [5]) and 11.5 in data set [2] (setting [6]).

`COC(=O)C=C(C)C=CC1(O)C(C)=CC(=O)CC1(C)C1CC1` (centres unmarked) [PBI-696, 8′ cyclopropane ester]: the figures for the Shelf life in data set [1] (setting [3]) and in data set [1] (setting [4]) were 5.3 days and 7.8 days, respectively. The molecule also gave a Yellow leaf number in data set [2] (setting [5]) of 9.0.

Regarding `O=C(Nc1ccccc1)Nc1ccnc(Cl)c1` [CPPU, N1-(2-chloro-4-pyridyl)-N3-phenylurea], the Shelf life amounted to 3.2 days in data set [1] (0.02 mg CPPU, Matrix Yellow, Table 6) and 2.8 days in data set [1] (0.2 mg CPPU, Matrix Yellow, Table 6). Further, the Yellow leaf number in data set [2] (0.02 mg CPPU, Matrix Yellow, 3 d after treatment, Table 6) is on record as 7.7; in data set [2] (0.2 mg CPPU, Matrix Yellow, 3 d after treatment, Table 6), 5.7.

Take `COC(=O)C=C(C)C#CC1(O)c2ccccc2C(=O)CC1(C)C` (mixture of isomers) [PBI-702, tetralone, first carbon tail acetylene, ester]: the Shelf life in data set [1] (setting [3]) came to 4.7 days; in data set [1] (setting [4]), 7.0 days. The Yellow leaf number in data set [2] (setting [5]) is recorded as 10.8; in data set [2] (setting [6]) it was 11.0.

Consider `C/C(C#C[C@]1(O)C(C)CC(=O)CC1(C)C)=C/CO` (some centres unmarked) [PBI-51], for which the Shelf life in data set [1] (3 mg, Delta Premium Pure Golden Yellow, advanced seedling stage (1 month old), drought, Table 4) came to 3.7 days; in data set [1] (3 mg, Delta Premium Pure Golden Yellow, drought, Table 3), 5.0 days; in data set [1] (30 mg, Delta Premium Pure Golden Yellow, advanced seedling stage (1 month old), drought, Table 4), 3.5 days; in data set [1] (30 mg, Delta Premium Pure Golden Yellow, drought, Table 3), 5.0 days. The Yellow leaf number in data set [2] (3 mg, Delta Premium Pure Golden Yellow, advanced seedling stage (1 month old), drought, 3 d after treatment, Table 4) came out at 8.2; in data set [2] (3 mg, Delta Premium Pure Golden Yellow, drought, 3 d after treatment, Table 3), 7.5; in data set [2] (30 mg, Delta Premium Pure Golden Yellow, advanced seedling stage (1 month old), drought, 3 d after treatment, Table 4), 8.8; in data set [2] (30 mg, Delta Premium Pure Golden Yellow, drought, 3 d after treatment, Table 3), 8.0.

On to `C#CC1(C)CC(=O)C=C(C)C1(O)C=CC(C)=CC(=O)O` (centres unmarked) [PBI-524, 8′ acetylene-ABA, acid], for which the Shelf life was found to be 6.5 days in data set [1] (setting [3]) and 8.8 days in data set [1] (setting [4]). Moreover, the results for the Yellow leaf number in data set [2] (setting [5]) and in data set [2] (setting [6]) were 11.0 and 11.2, respectively.
